According to US8735584B2 (Merck Patent GmbH, priority 2008, dated 2014):

Molecular target: T1, GST-Aurora A (Homo sapiens, UniProt O14965)
T1 construct: N-terminal GST fusion with full length Aurora A (1-403 amino acids); purchased Carna Biosciences 05-101
T1 sequence (O14965 1-403): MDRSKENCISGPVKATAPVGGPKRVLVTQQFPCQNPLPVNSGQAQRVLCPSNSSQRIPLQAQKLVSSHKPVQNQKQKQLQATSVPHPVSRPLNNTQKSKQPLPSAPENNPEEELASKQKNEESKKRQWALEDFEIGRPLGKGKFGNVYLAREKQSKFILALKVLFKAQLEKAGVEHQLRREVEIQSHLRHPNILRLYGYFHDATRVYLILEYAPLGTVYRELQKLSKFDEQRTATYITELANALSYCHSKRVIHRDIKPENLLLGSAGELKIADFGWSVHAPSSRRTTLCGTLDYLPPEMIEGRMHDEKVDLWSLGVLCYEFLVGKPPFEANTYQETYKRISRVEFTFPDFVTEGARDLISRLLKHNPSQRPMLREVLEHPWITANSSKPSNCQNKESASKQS
Assay: Aurora A IC50, Caliper LC3000 mobility shift assay
Assay type: biochemical
Conditions: LC3000 method; 15 uM ATP (the KM value); read-out: Aurora Kinase A Activity (IC50)
Outline: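 Readout: percent conversion of FITC-LRRASLG (1 uM) to phosphopeptide, resolved electrophoretically on a Caliper LC3000, fitted against inhibitor concentration for IC50. Reaction: N-terminal GST full-length Aurora A, ATP at its KM (15 uM), pH 7.5 HEPES with MgCl2/DTT, 25 C for 90 min.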

| SMILES | IC50 |
| --- | --- |
| CCOC(=O)c1cccc2c1c(=O)[nH]c1nccc(Nc3ccc(NC(=O)c4ccccc4)cc3)c12 [Compound 423, 1-[4-Benzoylamino-phenylamino)-6-oxo-5,6-dihydro-benzo[c][1,8]naphthyridin-7-carboxylic acid ethyl ester] | < 0.011 µM |
| O=C(Cn1cc(Nc2ccnc3[nH]c(=O)c4ccccc4c23)cn1)Nc1ccc(F)cc1 [Compound 430] | > 0.1 µM |
| O=C(Cn1cc(Nc2ccnc3[nH]c(=O)c4ccccc4c23)cn1)Nc1ccc(C(F)(F)F)cc1 [Compound 431] | > 0.1 µM |
| O=C(Nc1ccc(Nc2ccnc3[nH]c(=O)c4ccccc4c23)cc1)c1cccc(F)c1F [Compound 432, 2,3-Difluoro-N-[4-(6-oxo-5,6-dihydro-benzo[c][1,8]naphthyridin-1-ylamino)-phenyl]-benzamide] | < 0.011 µM |
| O=C(Nc1ccc(Nc2ccnc3[nH]c(=O)c4ccccc4c23)cc1)c1cccc2c1OCC2 [Compound 433, 2,3-Dihydro-benzofuran-7-carboxylic acid [4-(6-oxo-5,6-dihydro-benzo[c][1,8]naphthyridin-1-ylamino)-phenyl]-amide] | 0.011 to 0.1 µM |
| O=C(Nc1ccc(Nc2ccnc3[nH]c(=O)c4c(C(=O)O)cccc4c23)cc1)c1ccccc1 [Compound 434, 1-[4-Benzoylamino-phenylamino)-6-oxo-5,6-dihydro-benzo[c][1,8]naphthyridin-7-carboxylic acid] | 0.011 to 0.1 µM |
| CN(C)CCNC(=O)c1cccc2c1c(=O)[nH]c1nccc(Nc3ccc(NC(=O)c4ccccc4)cc3)c12 [Compound 435, 1-[4-Benzoylamino-phenylamino)-6-oxo-5,6-dihydro-benzo[c][1,8]naphthyridin-7-carboxylic acid 2-dimethylamino-ethyl amide] | < 0.011 µM |
| CN(C)CCCNC(=O)c1cccc2c1c(=O)[nH]c1nccc(Nc3ccc(NC(=O)c4ccccc4)cc3)c12 [Compound 436, 1-(4-Benzoylamino-phenylamino)-6-oxo-5,6-dihydro-benzo[c][1,8]naphthyridine-7-carboxylic acid (3-dimethylamino-propyl)-amide] | 0.011 to 0.1 µM |
| O=C(Nc1ccc(Nc2ccnc3[nH]c(=O)c4c(C(=O)NCCCN5CCOCC5)cccc4c23)cc1)c1ccccc1 [Compound 437, 1-[4-Benzoylamino-phenylamino)-6-oxo-5,6-dihydro-benzo[c][1,8]naphthyridin-7-carboxylic acid 3-morpholin-4-yl-propyl amide] | < 0.011 µM |
| O=C(Nc1ccc(Nc2ccnc3[nH]c(=O)c4c(C(=O)NCCO)cccc4c23)cc1)c1ccccc1 [Compound 438, 1-[4-Benzoylamino-phenylamino)-6-oxo-5,6-dihydro-benzo[c][1,8]naphthyridin-7-carboxylic acid 2-hydroxy ethyl amide] | < 0.011 µM |
| O=C(Nc1ccc(Nc2ccnc3[nH]c(=O)c4c(C(=O)O)cccc4c23)cc1)c1ccc(F)cc1C(F)(F)F [Compound 439, 1-[4-(4-Fluoro-2-trifluoromethyl-benzoylamino)-phenylamino)-6-oxo-5,6-dihydro-benzo[c][1,8]naphthyridin-7-carboxylic acid] | < 0.011 µM |
| CN(C)CCNC(=O)c1cccc2c1c(=O)[nH]c1nccc(Nc3ccc(NC(=O)c4ccc(F)cc4C(F)(F)F)cc3)c12 [Compound 440, 1-[4-(4-Fluoro-2-trifluoromethyl-benzoylamino)-phenylamino)-6-oxo-5,6-dihydro-benzo[c][1,8]naphthyridin-7-carboxylic acid 2-dimethylamino-ethyl amide] | < 0.011 µM |
| CN(C)CCCNC(=O)c1cccc2c1c(=O)[nH]c1nccc(Nc3ccc(NC(=O)c4ccc(F)cc4C(F)(F)F)cc3)c12 [Compound 441] | < 0.011 µM |
| O=C(Nc1ccc(Nc2ccnc3[nH]c(=O)c4c(C(=O)NCCN5CCOCC5)cccc4c23)cc1)c1ccc(F)cc1C(F)(F)F [Compound 442, 1-[4-(4-Fluoro-2-trifluoromethyl-benzoylamino)-phenylamino]-6-oxo-5,6-dihydro-benzo[c][1,8]naphthyridine-7-carboxylic acid (2-morpholin-4-yl-ethyl)-amide] | < 0.011 µM |
| O=C(Nc1ccc(Nc2ccnc3[nH]c(=O)c4c(C(=O)NCCCN5CCOCC5)cccc4c23)cc1)c1ccc(F)cc1C(F)(F)F [Compound 443, 1-[4-(4-Fluoro-2-trifluoromethyl-benzoylamino)-phenylamino)-6-oxo-5,6-dihydro-benzo[c][1,8]naphthyridin-7-carboxylic acid 3-morpholin-4-yl-propyl amide] | < 0.011 µM |
| O=C(Nc1ccc(Nc2ccnc3[nH]c(=O)c4c(C(=O)NCCO)cccc4c23)cc1)c1ccc(F)cc1C(F)(F)F [Compound 444, 1-[4-(4-Fluoro-2-trifluoromethyl-benzoylamino)-phenylamino)-6-oxo-5,6-dihydro-benzo[c][1,8]naphthyridin-7-carboxylic acid 2-hydroxy ethyl amide] | < 0.011 µM |
| O=C(Nc1ccc(Nc2ccnc3[nH]c(=O)c4c(O)cccc4c23)cc1)c1ccc(F)cc1C(F)(F)F [Compound 445, 4-Fluoro-N-[4-(7-hydroxy-6-oxo-5,6-dihydro-benzo[c][1,8]naphthyridin-1-ylamino)-phenyl]-2-trifluoromethyl-benzamide] | 0.011 to 0.1 µM |
| O=C(Nc1ccc(Nc2ccnc3[nH]c(=O)c4c(O)cccc4c23)cc1)c1ccccc1 [Compound 446, N-[4-(7-Hydroxy-6-oxo-5,6-dihydro-benzo[c][1,8]naphthyridin-1-ylamino)-phenyl]-benzamide] | 0.011 to 0.1 µM |

| SMILES | IC50 |
| --- | --- |
| O=C(Nc1ccc(Nc2ccnc3[nH]c(=O)c4c(OCCN5CCOCC5)cccc4c23)cc1)c1ccccc1 [Compound 447] | 0.011 to 0.1 µM |
| CCN(Cc1ccccc1)c1ccc2c(=O)[nH]c3ncccc3c2c1 [Compound 449, 9-(Benzyl(ethyl)amino)benzo[c][1,8]naphthyridin-6(5H)-one] | > 0.1 µM |
| O=c1[nH]c2ncccc2c2cc(NCc3ccc(Cl)cc3)ccc12 [Compound 452, 9-(4-Chlorobenzylamino)benzo[c][1,8]naphthyridin-6(5H)-one] | > 0.1 µM |
| CCOC(=O)CCCNc1ccc2c(=O)[nH]c3ncccc3c2c1 [Compound 460, Ethyl 4-(6-oxo-5,6-dihydrobenzo[c][1,8]naphthyridin-9-ylamino)butanoate] | > 0.1 µM |
| O=c1[nH]c2ncccc2c2cc(NCc3c(F)cccc3C(F)(F)F)ccc12 [Compound 461, 9-(2-Fluoro-6-(trifluoromethyl)benzylamino)benzo[c][1,8]naphthyridin-6(5H)-one] | > 0.1 µM |
| N#Cc1ccccc1CNc1ccc2c(=O)[nH]c3ncccc3c2c1 [Compound 462, 2-((6-oxo-5,6-dihydrobenzo[c][1,8]naphthyridin-9-ylamino)methyl)benzonitrile] | > 0.1 µM |
| N#Cc1cccc(CNc2ccc3c(=O)[nH]c4ncccc4c3c2)c1 [Compound 463, 3-((6-Oxo-5,6-dihydrobenzo[c][1,8]naphthyridin-9-ylamino)methyl)benzonitrile] | > 0.1 µM |
| O=c1[nH]c2ncccc2c2cc(NCc3ccc(F)cc3C(F)(F)F)ccc12 [Compound 464, 9-(4-Fluoro-2-(trifluoromethyl)benzylamino)benzo[c][1,8]naphthyridin-6(5H)-one] | > 0.1 µM |
| O=c1[nH]c2ncccc2c2cc(NCc3cccc([N+](=O)[O-])c3)ccc12 [Compound 465, 9-(3-Nitrobenzylamino)benzo[c][1,8]naphthyridin-6(5H)-one] | > 0.1 µM |
| O=c1[nH]c2ncccc2c2cc(NCc3ccccc3[N+](=O)[O-])ccc12 [Compound 466, 9-(2-Nitrobenzylamino)benzo[c][1,8]naphthyridin-6(5H)-one] | > 0.1 µM |
| O=c1[nH]c2ncccc2c2cc(NCc3cc(C(F)(F)F)ccc3C(F)(F)F)ccc12 [Compound 468, 9-(2,5-Bis(trifluoromethyl)benzylamino)benzo[c][1,8]naphthyridin-6(5H)-one] | > 0.1 µM |
| O=c1[nH]c2ncccc2c2cc(NCc3ccccc3Br)ccc12 [Compound 469, 9-(2-Bromobenzylamino)benzo[c][1,8]naphthyridin-6(5H)-one] | 0.011 to 0.1 µM |
| O=c1[nH]c2ncccc2c2cc(NCc3ccccc3Cl)ccc12 [Compound 470, 9-(2-Chlorobenzylamino)benzo[c][1,8]naphthyridin-6(5H)-one] | 0.011 to 0.1 µM |
| O=c1[nH]c2ncccc2c2cc(NCc3c(F)cccc3Cl)ccc12 [Compound 471, 9-(2-Chloro-6-fluorobenzylamino)benzo[c][1,8]naphthyridin-6(5H)-one] | > 0.1 µM |
| CN1CCCC1CCNc1ccc2c(=O)[nH]c3ncccc3c2c1 (centres unmarked) [Compound 475, 9-(2-(1-Methylpyrrolidin-2-yl)ethylamino)benzo[c][1,8]naphthyridin-6(5H)-one] | > 0.1 µM |
| O=c1[nH]c2ncccc2c2cc(NCc3ccc4c(c3)OCO4)ccc12 [Compound 476, 9-(Benzo[d][1,3]dioxol-5-ylmethylamino)benzo[c][1,8]naphthyridin-6(5H)-one] | > 0.1 µM |
| O=C1CCCN1CCCNc1ccc2c(=O)[nH]c3ncccc3c2c1 [Compound 479, 9-(3-(2-Oxopyrrolidin-1-yl)propylamino)benzo[c][1,8]naphthyridin-6(5H)-one] | > 0.1 µM |
